From ChEMBL document CHEMBL4308854, “Novel indole-thiazolidinone conjugates: Design, synthesis and whole-cell phenotypic evaluation as a novel class of antimicrobial agents” (Eur J Med Chem, 2018)
Converted amounts (≈) assume the structure as drawn.

Experiments:
[1] = tested on: Mycobacterium tuberculosis; assay: Antitubercular activity against Mycobacterium tuberculosis RCMB 010126 after 7 days by microplate alamar blue assay; format: functional; conditions: RCMB 010126, 168 h
[2] = Selectivity index, ratio of IC50 for human WI38 cells to MIC for Mycobacterium tuberculosis RCMB 010126; format: toxicity; conditions: read-out: Selectivity Index
Staphylococcus aureus [3] = assay: Antibacterial activity against Staphylococcus aureus RCMB 010028 assessed as diameter of zone inhibition after 24 hrs by agar well diffusion assay; format: functional
Staphylococcus aureus [4] = assay: Antibacterial activity against Staphylococcus aureus RCMB 010028 after 24 hrs by serial dilution method; format: functional; conditions: RCMB 010028, 24 h
Pseudomonas aeruginosa [5] = assay: Antibacterial activity against Pseudomonas aeruginosa RCMB 010043 assessed as diameter of zone inhibition after 24 hrs by agar well diffusion assay; format: functional
Escherichia coli [6] = assay: Antibacterial activity against Escherichia coli RCMB 010052 assessed as diameter of zone inhibition after 24 hrs by agar well diffusion assay; format: functional
Pseudomonas aeruginosa [7] = assay: Antibacterial activity against Pseudomonas aeruginosa RCMB 010043 after 24 hrs by serial dilution method; format: functional; conditions: RCMB 010043, 24 h
Escherichia coli [8] = assay: Antibacterial activity against Escherichia coli RCMB 010052 after 24 hrs by serial dilution method; format: functional; conditions: RCMB 010052, 24 h
Enterococcus faecium = assay: Antibacterial activity against vancomycin-resistant Enterococcus faecium ATCC 700221 after 24 hrs by serial dilution method; format: functional; conditions: ATCC 700221, 24 h
[9] = tested on: Mycobacterium tuberculosis; assay: Antitubercular activity against Mycobacterium tuberculosis RCMB 010126 clinical isolate after 4 days by microplate alamar blue assay; format: functional
Aspergillus fumigatus [10] = assay: Antifungal activity against Aspergillus fumigatus RCMB 02568 after 24 hrs by serial dilution method; format: functional; conditions: RCMB 02568, 24 h
Aspergillus fumigatus [11] = assay: Antifungal activity against Aspergillus fumigatus RCMB 02568 assessed as diameter of zone inhibition after 48 hrs by agar well diffusion assay; format: functional
Candida albicans [12] = assay: Antifungal activity against Candida albicans RCMB 05036 assessed as diameter of zone inhibition after 48 hrs by agar well diffusion assay; format: functional
Candida albicans [13] = assay: Antifungal activity against Candida albicans RCMB 05036 after 24 hrs by serial dilution method; format: functional; conditions: RCMB 05036, 24 h
Mycolicibacterium aurum = assay: Antitubercular activity against Mycobacterium aurum infected in mouse RAW264.7 cells measured after 48 hrs; format: functional
[14] = Cytotoxicity against mouse RAW264.7 cells; format: cell-based
[15] = Selectivity index, ratio of GI50 for mouse RAW264.7 cells to MIC for Mycobacterium aurum infected in mouse RAW264.7 cells; format: toxicity, cell-based; conditions: read-out: Selectivity Index
Staphylococcus aureus [16] = assay: Antibacterial activity against methicillin-resistant Staphylococcus aureus ATCC 33592 after 24 hrs by serial dilution method; format: functional; conditions: ATCC 33592, 24 h
WI-38 = assay: Cytotoxicity against human WI38 cells by MTT assay; format: cell-based
[17] = Selectivity index, ratio of IC50 for human WI38 cells to MIC for Mycobacterium tuberculosis RCMB 010126 clinical isolate; format: toxicity; conditions: read-out: Selectivity Index
[18] = tested on: Mycobacterium tuberculosis; assay: Potency index, ratio of isoniazid MIC to compound MIC for antitubercular activity against Mycobacterium tuberculosis RCMB 010126 clinical isolate; format: functional
Aspergillus fumigatus [19] = assay: Potency index, ratio of amphotericin B MIC to compound MIC for antifungal activity against Aspergillus fumigatus RCMB 02568; format: functional
Staphylococcus aureus [20] = assay: Potency index, ratio of ciprofloxacin MIC to compound MIC for Staphylococcus aureus RCMB 010028; format: functional
Pseudomonas aeruginosa [21] = assay: Potency index, ratio of ciprofloxacin MIC to compound MIC for Pseudomonas aeruginosa RCMB 010043; format: functional
Escherichia coli [22] = assay: Potency index, ratio of ciprofloxacin MIC to compound MIC for Escherichia coli RCMB 010052; format: functional
Aspergillus fumigatus [23] = assay: Potency index, ratio of amphotericin B MIC to compound MIC for Aspergillus fumigatus RCMB 02568; format: functional
[24] = Stability in mouse RAW264.7 cells measured after 48 hrs; format: ADME, cell-based; conditions: raw264.7, 48 h

SMILES: CCOC(=O)c1sc(/N=C2\NC(=O)/C(=C/c3cccnc3)S2)nc1C
- MIC [1]: 1.56 µg/mL (≈ 4.17 µM)
- selectivity ratio [2]: 52.1

SMILES: O=C(O)c1cn(C2CC2)c2cc(N3CCNCC3)c(F)cc2c1=O [CIPROFLOXACIN]
- diameter of the inhibition zone (DIZ) (Staphylococcus aureus [3]): 22.2 mm
- MIC (Staphylococcus aureus [4]): 1.95 µg/mL (≈ 5.89 µM)
- diameter of the inhibition zone (DIZ) (Pseudomonas aeruginosa [5]): 23.1 mm
- diameter of the inhibition zone (DIZ) (Escherichia coli [6]): 24.3 mm
- MIC (Pseudomonas aeruginosa [7]): 3.9 µg/mL (≈ 11.8 µM)
- MIC (Escherichia coli [8]): 1.95 µg/mL (≈ 5.89 µM)
- MIC (Enterococcus faecium): 3.9 µg/mL (≈ 11.8 µM)

SMILES: CC(=O)c1sc(/N=C2\NC(=O)/C(=C3/C(=O)N(C)c4ccccc43)S2)nc1C
- inhibition (INH) [9]: 76.35%
- MIC ([9]; Mycobacterium tuberculosis, RCMB 010126, 96 h): 0.39 µg/mL (≈ 0.979 µM)
- diameter of the inhibition zone (DIZ) (Staphylococcus aureus [3]): 23.4 mm
- MIC (Staphylococcus aureus [4]): 0.98 µg/mL (≈ 2.46 µM)
- diameter of the inhibition zone (DIZ) (Pseudomonas aeruginosa [5]): 23.2 mm
- diameter of the inhibition zone (DIZ) (Escherichia coli [6]): 25.1 mm
- MIC (Pseudomonas aeruginosa [7]): 0.98 µg/mL (≈ 2.46 µM)
- MIC (Escherichia coli [8]): 0.49 µg/mL (≈ 1.23 µM)
- MIC (Aspergillus fumigatus [10]): 0.98 µg/mL (≈ 2.46 µM)
- diameter of the inhibition zone (DIZ) (Aspergillus fumigatus [11]): 23.2 mm
- diameter of the inhibition zone (DIZ) (Candida albicans [12]): 25.1 mm
- MIC (Candida albicans [13]): 0.49 µg/mL (≈ 1.23 µM)
- MIC (Mycolicibacterium aurum): 50 µg/mL (≈ 125 µM)
- GI50 [14]: > 250 µg/mL
- selectivity ratio [15]: > 5
- MIC (Staphylococcus aureus [16]): 15.6 µg/mL (≈ 39.2 µM)
- MIC (Enterococcus faecium): 62.5 µg/mL (≈ 157 µM)
- IC50 (WI-38): 5.3 µg/mL (≈ 13.3 µM)
- selectivity ratio [17]: 13
- Ratio [18]: 2
- Ratio (Aspergillus fumigatus [19]): 2
- Ratio (Staphylococcus aureus [20]): 2
- Ratio (Pseudomonas aeruginosa [21]): 4
- Ratio (Escherichia coli [22]): 4
- Ratio (Aspergillus fumigatus [23]): 2
- Stability [24]: Stable

SMILES: CN[C@H](CC(C)C)C(=O)N[C@H]1C(=O)N[C@@H](CC(N)=O)C(=O)N[C@H]2C(=O)N[C@H]3C(=O)N[C@H](C(=O)N[C@H](C(=O)O)c4cc(O)cc(O)c4-c4cc3ccc4O)[C@H](O)c3ccc(c(Cl)c3)Oc3cc2cc(c3O[C@@H]2O[C@H](CO)[C@@H](O)[C@H](O)[C@H]2O[C@H]2C[C@](C)(N)[C@H](O)[C@H](C)O2)Oc2ccc(cc2Cl)[C@H]1O [VANCOMYCIN]
- MIC (Staphylococcus aureus [16]): 1.95 µg/mL (≈ 1.35 µM)
